By EC50 is commonly meant the concentration at which the effect is half-maximal.

The target in the experiment is T1, Recombinant human TLR7 (Homo sapiens, UniProt Q9NYK1).
T1 construct: expressed in transfected cells; host or cells: HEK293 cell line stably expressing the pNiFty2-SEAP reporter plasmid; TLR7 in vector pUNO, blasticidin selection
T1 sequence (Q9NYK1 27-1049): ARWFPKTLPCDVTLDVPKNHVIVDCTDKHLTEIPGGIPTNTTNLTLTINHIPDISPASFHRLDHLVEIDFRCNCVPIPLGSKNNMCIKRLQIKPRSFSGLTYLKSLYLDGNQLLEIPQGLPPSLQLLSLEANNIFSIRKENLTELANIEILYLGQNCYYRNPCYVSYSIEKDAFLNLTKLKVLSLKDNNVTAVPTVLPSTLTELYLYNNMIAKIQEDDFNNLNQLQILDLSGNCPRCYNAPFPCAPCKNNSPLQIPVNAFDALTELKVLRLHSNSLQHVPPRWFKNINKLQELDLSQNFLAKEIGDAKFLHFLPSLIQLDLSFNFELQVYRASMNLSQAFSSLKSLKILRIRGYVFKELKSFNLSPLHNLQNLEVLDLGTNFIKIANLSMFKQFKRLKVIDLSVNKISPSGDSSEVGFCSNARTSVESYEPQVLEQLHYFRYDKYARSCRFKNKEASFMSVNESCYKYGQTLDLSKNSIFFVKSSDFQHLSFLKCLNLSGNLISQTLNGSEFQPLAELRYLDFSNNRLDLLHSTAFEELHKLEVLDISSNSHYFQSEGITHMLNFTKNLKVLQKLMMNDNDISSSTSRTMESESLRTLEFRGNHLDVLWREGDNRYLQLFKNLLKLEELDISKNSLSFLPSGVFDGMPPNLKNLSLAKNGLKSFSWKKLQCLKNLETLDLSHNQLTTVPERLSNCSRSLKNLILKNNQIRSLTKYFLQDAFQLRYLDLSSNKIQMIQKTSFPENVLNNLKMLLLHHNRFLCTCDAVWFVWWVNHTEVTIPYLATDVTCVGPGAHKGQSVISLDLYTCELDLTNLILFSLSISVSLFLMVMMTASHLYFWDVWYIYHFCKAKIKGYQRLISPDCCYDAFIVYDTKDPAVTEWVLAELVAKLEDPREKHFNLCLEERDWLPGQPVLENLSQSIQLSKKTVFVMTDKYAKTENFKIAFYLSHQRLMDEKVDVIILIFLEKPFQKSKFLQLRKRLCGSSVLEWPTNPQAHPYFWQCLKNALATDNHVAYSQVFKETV
In words: Human TLR7 Assay (SEAP reporter).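 Also: SEAP driven by an NFkB-responsive composite promoter, pEC50 read at half of each compound's own maximal SEAP induction.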 The class given is cell-based. The following applies: HEK293 cell line stably expressing human TLR7 and pNiFty2-SEAP reporter; SEAP induction after overnight incubation at 37° C., 0.1% (v/v) DMSO.
Description: Recombinant human TLR7 was stably expressed in a HEK293 cell line already stably expressing the pNiFty2-SEAP reporter plasmid; integration of the reporter gene was maintained by selection with the antibiotic zeocin. The most common variant sequence of human TLR7 (represented by the EMBL sequence AF240467) was cloned into the mammalian cell expression vector pUNO and transfected into this reporter cell-line. Transfectants with stable expression were selected using the antibiotic blasticidin. In this reporter cell-line, expression of secreted alkaline phosphatase (SEAP) is controlled by an NFkB/ELAM-1 composite promoter comprising five NFkB sites combined with the proximal ELAM-1 promoter. TLR signaling leads to the translocation of NFkB and activation of the promoter results in expression of the SEAP gene. TLR7-specific activation was assessed by determining the level of SEAP produced following overnight incubation of the cells at 37° C. with the standard compound in the presence of 0.1% (v/v) dimethylsulfoxide (DMSO). Concentration dependent induction of SEAP production by compounds was expressed as the concentration of compound which produced half of the maximal level of SEAP induction for that compound (pEC50).
Consider `CCCCNc1nc(N)nc(C)c1Cc1ccc(CC(=O)OCCO)cc1OC` [Example 89, 2-Hydroxyethyl 2-(4-((2-amino-4-(butylamino)-6-methylpyrimidin-5-yl)methyl)-3-methoxyphenyl)acetate], for which the EC50 was 50.1 nM.

Take `CCCCNc1nc(N)nc(C)c1Cc1ccc(CC(=O)OCCCCN2CCC(N(C)C)CC2)cc1OC` [Example 90, 4-(4-(Dimethylamino)piperidin-1-yl)butyl 2-(4-((2-amino-4-(butylamino)-6-methylpyrimidin-5-yl)methyl)-3-methoxyphenyl)acetate]: the EC50 was 25.1 nM. To `CC[C@H](O)CNc1nc(N)nc(C)c1Cc1ccc(CC(=O)OC)cc1OC` [Example 53, (S)-Methyl 2-(4-((2-amino-4-(2-hydroxybutylamino)-6-methylpyrimidin-5-yl)methyl)-3-methoxyphenyl)acetate] belongs 39.8 nM. For the compound `CCC[C@@H](CO)Nc1nc(N)nc(C)c1Cc1ccc(CC(=O)OCCCCN(C)C)cc1` [Example 70, (S)-4-(Dimethylamino)butyl 2-(4-((2-amino-4-(1-hydroxypentan-2-ylamino)-6-methylpyrimidin-5-yl)methyl)phenyl)acetate], the EC50 was 1260 nM. The result for `CCCCCNc1nc(N)nc(C)c1Cc1ccc(CC(=O)OCCN2CCN(C)CC2)cc1` [Example 38, 2-(4-Methylpiperazin-1-yl)ethyl 2-(4-((2-amino-4-methyl-6-(pentylamino)pyrimidin-5-yl)methyl)phenyl)acetate] reads 126 nM; that for `CCCCCNc1nc(N)nc(C)c1CCCN(Cc1cccc(CC(=O)OC)c1)C(=O)CN1CCC[C@H]1C(=O)OC` [Example 5, (S)-Methyl 1-(2-((3-(2-amino-4-methyl-6-(pentylamino)pyrimidin-5-yl)propyl)(3-(2-methoxy-2-oxoethyl)benzyl)amino)-2-oxoethyl)pyrrolidine-2-carboxylate], 631 nM; that for `CCC[C@@H](CO)Nc1nc(N)nc(C)c1Cc1ccc(CC(=O)OCC2CCN(C)CC2)cc1O` [Example 76, (S)-(1-Methylpiperidin-4-yl)methyl 2-(4-((2-amino-4-(1-hydroxypentan-2-ylamino)-6-methylpyrimidin-5-yl)methyl)-3-hydroxyphenyl)acetate], 631 nM. Turning to `CCCCNc1nc(N)nc(C)c1Cc1ccc(CC(=O)OCCCCN2CCCC2)cc1` [Example 82, 4-(Pyrrolidin-1-yl)butyl 2-(4-((2-amino-4-(butylamino)-6-methylpyrimidin-5-yl)methyl)phenyl)acetate], the EC50 was 100 nM.

`CCC[C@@H](CCO)Nc1nc(N)nc(C)c1Cc1ccc(CC(=O)OC)cc1OC` [Example 48, (S)-Methyl 2-(4-((2-amino-4-(1-hydroxyhexan-3-ylamino)-6-methylpyrimidin-5-yl)methyl)-3-methoxyphenyl)acetate]: the EC50 was 2 nM.

On to `CCCCNc1nc(N)nc(C)c1Cc1cc(CC(=O)OC)ccc1O` [Example 99, Methyl 2-(3-((2-amino-4-(butylamino)-6-methylpyrimidin-5-yl)methyl)-4-hydroxyphenyl)acetate], for which the EC50 is 79.4 nM. To `CCCCCNc1nc(N)nc(C)c1Cc1ccc(CC(=O)OCCCN2CCN(C)CC2)cc1` [Example 56, 3-(4-Methylpiperazin-1-yl)propyl 2-(4-((2-amino-4-methyl-6-(pentylamino)pyrimidin-5-yl)methyl)phenyl)acetate] belongs 251 nM. The result for `CCCC[C@@H](CCO)Nc1nc(N)nc(C)c1CCCNCc1ccc(CC(=O)OC)cc1` [Example 18, (S)-Methyl 2-(4-((3-(2-amino-4-(1-hydroxyheptan-3-ylamino)-6-methylpyrimidin-5-yl)propylamino)methyl)phenyl)acetate] reads 1580 nM; that for `CCCCNc1nc(N)nc(C)c1Cc1ccc(CC(=O)OCCCCN2CCCC2)cc1O` [Example 79, 4-(Pyrrolidin-1-yl)butyl 2-(4-((2-amino-4-(butylamino)-6-methylpyrimidin-5-yl)methyl)-3-hydroxyphenyl)acetate], 126 nM; that for `CCC[C@@H](CCO)Nc1nc(N)nc(C)c1Cc1ccc(CC(=O)OCCCCN2CCCC2)cc1O` [Example 78, (S)-4-(Pyrrolidin-1-yl)butyl 2-(4-((2-amino-4-(1-hydroxyhexan-3-ylamino)-6-methylpyrimidin-5-yl)methyl)-3-hydroxyphenyl)acetate], 50.1 nM.

For `CCCCCNc1nc(N)nc(C)c1CCCN(Cc1ccc(CC(=O)OC)cc1)C(=O)CSC` [Example 52, Methyl 2-(4-((N-(3-(2-amino-4-methyl-6-(pentylamino)pyrimidin-5-yl)propyl)-2-(methylthio)acetamido)methyl)phenyl)acetate], the half-maximal effective concentration (EC50) was 631 nM.

Turning to `CCCCCNc1nc(N)nc(C)c1Cc1ccc(CC(=O)OC2CCN(C)CC2)cc1` [Example 59, 1-Methylpiperidin-4-yl 2-(4-((2-amino-4-methyl-6-(pentylamino)pyrimidin-5-yl)methyl)phenyl)acetate], the 50% effective concentration (EC50) was 126 nM. On to `CCCCCNc1nc(N)nc(C)c1CCCN(Cc1cccc(CC(=O)OC)c1)C(=O)CN(C)CCO` [Example 10], for which the EC50 was 1580 nM.

Take `CCCCCNc1nc(N)nc(C)c1CCCNCc1ccc(CC(=O)OC)cc1` [Example 2, Methyl 2-(4-((3-(2-amino-4-methyl-6-(pentylamino)pyrimidin-5-yl)propylamino)methyl)phenyl)acetate]: the EC50 was 1000 nM. In the case of `CCCCCNc1nc(N)nc(C)c1Cc1ccc(CC(=O)OCCCN(C)C)cc1` [Example 37, 3-(Dimethylamino)propyl 2-(4-((2-amino-4-methyl-6-(pentylamino)pyrimidin-5-yl)methyl)phenyl)acetate], the EC50 is 126 nM.

On to `CCCC[C@@H](CCO)Nc1nc(N)nc(C)c1Cc1ccc(CC(=O)OC)cc1OC` [Example 31, (S)-Methyl 2-(4-((2-amino-4-(1-hydroxyheptan-3-ylamino)-6-methylpyrimidin-5-yl)methyl)-3-methoxyphenyl)acetate], for which the EC50 is 6.31 nM. The result for `CCCCNc1nc(N)nc(C)c1Cc1cc(CC(=O)OCC2CCN(C)CC2)ccc1OC` [Example 83, (1-Methylpiperidin-4-yl)methyl 2-(3-((2-amino-4-(butylamino)-6-methylpyrimidin-5-yl)methyl)-4-methoxyphenyl)acetate] reads 20 nM. To `CCCCCNc1nc(N)nc(C)c1CCCCNCc1cccc(CC(=O)OC)c1` [Example 17, Methyl 2-(3-((4-(2-amino-4-methyl-6-(pentylamino)pyrimidin-5-yl)butylamino)methyl)phenyl)acetate] belongs 1000 nM; to `CCC[C@@H](CCO)Nc1nc(N)nc(C)c1Cc1ccc(CC(=O)OCCC2CCN(C)CC2)cc1F` [Example 100, (S)-2-(1-Methylpiperidin-4-yl)ethyl 2-(4-((2-amino-4-(1-hydroxyhexan-3-ylamino)-6-methylpyrimidin-5-yl)methyl)-3-fluorophenyl)acetate], 31.6 nM. The result for `CCCCCNc1nc(N)nc(C)c1CCCN(Cc1ccc(CC(=O)OC)cc1)C(=O)CN1CCOCC1` [Example 27, Methyl 2-(4-((N-(3-(2-amino-4-methyl-6-(pentylamino)pyrimidin-5-yl)propyl)-2-morpholinoacetamido)methyl)phenyl)acetate] reads 2000 nM. Take `CCCCCNc1nc(N)nc(C)c1CCCN(Cc1ccc(CC(=O)OC)cc1)C(=O)C1CCN(C)CC1` [Example 51, Methyl 2-(4-((N-(3-(2-amino-4-methyl-6-(pentylamino)pyrimidin-5-yl)propyl)-1-methylpiperidine-4-carboxamido)methyl)phenyl)acetate]: the EC50 is 794 nM. With `CCCCCNc1nc(N)nc(C)c1CCCN(Cc1cccc(CC(=O)OC)c1)C(=O)CN(C)C` [Example 3, Methyl 2-(3-((N-(3-(2-amino-4-methyl-6-(pentylamino)pyrimidin-5-yl)propyl)-2-(dimethylamino)acetamido)methyl)phenyl)acetate], the EC50 was 631 nM. For `CCCCCNc1nc(N)nc(C)c1Cc1ccc(CC(=O)OCCC2CCN(C)CC2)cc1` [Example 66, 2-(1-Methylpiperidin-4-yl)ethyl 2-(4-((2-amino-4-methyl-6-(pentylamino)pyrimidin-5-yl)methyl)phenyl)acetate], the EC50 was 158 nM.

With `CCC[C@@H](CCO)Nc1nc(N)nc(C)c1Cc1ccc(CC(=O)OC)cc1O` [Example 75, (S)-Methyl 2-(4-((2-amino-4-(1-hydroxyhexan-3-ylamino)-6-methylpyrimidin-5-yl)methyl)-3-hydroxyphenyl)acetate], the EC50 is 6.31 nM.

(Values after patent publication US8268990B2, “Compounds” (AstraZeneca AB, priority 2007, dated 2012).)
